Source: US20240025906A1 (NEURON23, INC., priority 2022, published 2024)

Experiments:
[1] = tested on: JAK1/TYK2 pSTAT5 (Tyr694/699) in THP-1 cell line; assay: IFNa-stimulated JAK1/TYK2 pSTAT5 (Tyr694/699) inhibition cellular assay, AlphaLISA; format: cell-based; details: Homo sapiens; THP-1 cells, IFNa-stimulated, AlphaLISA (Assay B); read-out: Cellular THP1_IFNa-pSTATS_IC50
Method in brief: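 THP-1 cells (2e4/well in HBSS) were preincubated with compound (8 points, 6-fold steps from 10000 nM final) for 1 h at 37 °C, then stimulated with IFNa (added at 100 ng/mL) for 30 min. Lysate pSTAT5 was read by AlphaLISA at 615 nm. IC50 came from a 4-parameter fit with bottom 0 and Hill −1.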

TYK2 JH2 = target: T1, TYK2 JH2 (Homo sapiens, UniProt P29597); assay: TYK2 JH2 binding assay (KINOMEscan KdELECT competitive binding); details: TYK2 JH2 domain, KINOMEscan KdELECT (Assay A); read-out: Biochemical TYK2_JH2_Kd
T1 construct: purchased DiscoverX (KINOMEscan KdELECT service); host or cells: E. coli BL21-derived (T7 phage display) or HEK-293
Method in brief: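 The assay measures displacement of DNA- or phage-tagged TYK2 pseudokinase domain from an affinity resin; compound binding lowers the amount captured, read by qPCR. Incubation lasts 1 h at room temperature.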

T1 sequence (P29597 589-875 limits assumed): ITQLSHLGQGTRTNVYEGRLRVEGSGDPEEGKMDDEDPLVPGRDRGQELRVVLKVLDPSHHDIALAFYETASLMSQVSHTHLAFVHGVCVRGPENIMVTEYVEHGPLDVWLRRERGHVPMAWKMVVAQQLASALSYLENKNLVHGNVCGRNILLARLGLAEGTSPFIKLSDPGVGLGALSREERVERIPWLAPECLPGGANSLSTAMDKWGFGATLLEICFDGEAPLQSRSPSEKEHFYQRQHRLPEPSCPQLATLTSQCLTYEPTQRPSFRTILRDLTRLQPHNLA

`CNc1ncc(-c2cccc(S(C)(=O)=O)c2)c2cc(NC(=O)C3CC3)ncc12` [Example 29, N-(8-(methylamino)-5-(3-(methylsulfonyl)phenyl)-2,7-naphthyridin-3-yl)cyclopropanecarboxamide] was tested, and the IC50 [1] was > 0.5 µM and the Kd (TYK2 JH2) was ≤ 0.1 µM.
`CNc1ncc(-c2ocnc2C)c2cc(NC(=O)C3CC3)ncc12` [Example 30, N-(8-(methylamino)-5-(4-methyloxazol-5-yl)-2,7-naphthyridin-3-yl)cyclopropanecarboxamide] was tested, and the IC50 [1] was > 0.5 µM and the Kd (TYK2 JH2) was ≤ 0.1 µM.
`CNc1ncc(CCc2ccccc2)c2cc(NC(=O)C3CC3)ncc12` [Example 31, N-(8-(methylamino)-5-phenethyl-2,7-naphthyridin-3-yl)cyclopropanecarboxamide] was tested, and the IC50 [1] was > 0.5 µM and the Kd (TYK2 JH2) was ≤ 0.1 µM.
With `CNc1ncc(-c2nc(C)co2)c2cc(NC(=O)C3CC3)ncc12` [Example 32, N-(8-(methylamino)-5-(4-methyloxazol-2-yl)-2,7-naphthyridin-3-yl)cyclopropanecarboxamide] the IC50 [1] was ≤ 0.5 µM and the Kd (TYK2 JH2) was ≤ 0.1 µM.
With `CNc1ncc(/C=C/c2ccccc2)c2cc(NC(=O)C3CC3)ncc12` [Example 33, (E)-N-(8-(methylamino)-5-styryl-2,7-naphthyridin-3-yl)cyclopropanecarboxamide] the IC50 [1] was ≤ 0.5 µM and the Kd (TYK2 JH2) was ≤ 0.1 µM.
In the case of `CNc1ncc(Cc2ccc(OC)cc2)c2cc(NC(=O)C3CC3)ncc12` [Example 34, N-(5-(4-methoxybenzyl)-8-(methylamino)-2,7-naphthyridin-3-yl)cyclopropanecarboxamide], the IC50 [1] is reported as > 0.5 µM and the Kd (TYK2 JH2) is reported as 0.1 to 1 µM.
In the case of `CNc1ncc(-c2ccccc2C)c2cc(NC(=O)C3CC3)ncc12` [Example 35, N-(8-(methylamino)-5-(o-tolyl)-2,7-naphthyridin-3-yl)cyclopropanecarboxamide], the IC50 [1] is reported as > 0.5 µM and the Kd (TYK2 JH2) is reported as ≤ 0.1 µM.
In the case of `CNc1ncc(-c2conc2C)c2cc(NC(=O)C3CC3)ncc12` [Example 36, N-(8-(methylamino)-5-(3-methylisoxazol-4-yl)-2,7-naphthyridin-3-yl)cyclopropanecarboxamide], the IC50 [1] is reported as > 0.5 µM and the Kd (TYK2 JH2) is reported as ≤ 0.1 µM.
For `CNc1ncc(-c2ccc(C#N)cc2)c2cc(NC(=O)C3CC3)ncc12` [Example 37, N-(5-(4-cyanophenyl)-8-(methylamino)-2,7-naphthyridin-3-yl)cyclopropanecarboxamide], the IC50 [1] was > 0.5 µM and the Kd (TYK2 JH2) was ≤ 0.1 µM.
`CNc1ncc(-c2cnn(CC(F)(F)F)c2)c2cc(NC(=O)C3CC3)ncc12` [Example 38, N-(8-(methylamino)-5-(1-(2,2,2-trifluoroethyl)-1H-pyrazol-4-yl)-2,7-naphthyridin-3-yl)cyclopropanecarboxamide] was tested, and the IC50 [1] was > 0.5 µM and the Kd (TYK2 JH2) was ≤ 0.1 µM.
In the case of `CNc1ncc(-c2c(C)cnn2C2CCCCO2)c2cc(NC(=O)C3CC3)ncc12` (stereo not drawn) [Example 39, N-(5-(4-methyl-1-(tetrahydro-2H-pyran-2-yl)-1H-pyrazol-5-yl)-8-(methylamino)-2,7-naphthyridin-3-yl)cyclopropanecarboxamide], the IC50 [1] is reported as > 0.5 µM and the Kd (TYK2 JH2) is reported as 1 to 10 µM.
For `CNc1ncc(-c2[nH]ncc2C)c2cc(NC(=O)C3CC3)ncc12` [Example 40, N-(5-(4-methyl-1H-pyrazol-5-yl)-8-(methylamino)-2,7-naphthyridin-3-yl)cyclopropanecarboxamide], the IC50 [1] was > 0.5 µM and the Kd (TYK2 JH2) was ≤ 0.1 µM.
With `CNc1ncc(-c2ccccc2C(N)=O)c2cc(NC(=O)C3CC3)ncc12` [Example 41, 2-(6-(cyclopropanecarboxamido)-1-(methylamino)-2,7-naphthyridin-4-yl)benzamide] the IC50 [1] was > 0.5 µM and the Kd (TYK2 JH2) was 0.1 to 1 µM.
In the case of `CNc1ncc(-c2ccccc2C#N)c2cc(NC(=O)C3CC3)ncc12` [Example 42, N-(5-(2-cyanophenyl)-8-(methylamino)-2,7-naphthyridin-3-yl)cyclopropanecarboxamide], the IC50 [1] is reported as > 0.5 µM and the Kd (TYK2 JH2) is reported as 0.1 to 1 µM.
For `CNc1ncc(Cc2ccccc2)c2cc(NC(=O)C3CC3)ncc12` [Example 43, N-(5-benzyl-8-(methylamino)-2,7-naphthyridin-3-yl)cyclopropanecarboxamide], the IC50 [1] was > 0.5 µM and the Kd (TYK2 JH2) was ≤ 0.1 µM.
